Results from PMC6414696 (mBio, 2019).
Converted amounts (≈) assume the structure as drawn.

Tests used:
[1] = test system: A. baumannii clinical isolates; assay: Broth microdilution MIC susceptibility testing against carbapenems; assay type: cell-based, Acinetobacter baumannii; conditions: Acinetobacter baumannii
A. baumannii ARC5955 = assay: Neutropenic murine thigh infection model; assay type: in vivo; conditions: thigh tissue, CD-1 mice, 24 h after initiation of therapy, 40 mg/kg SC/q24h; for Change in log10 CFU/g: 40 mg/kg
OXA-48 = conditions: cited from earlier work
OXA-10 = OXA-10 from Pseudomonas aeruginosa; cited from earlier work
OXA 24/40 = conditions: cited from earlier work

In the case of `C[C@@H](O)[C@H]1C(=O)N2C(C(=O)O)=C(SCCN=CN)C[C@H]12` [Imipenem], the MIC ([1]; strain CCF 1MR) is reported as greater than 8 µg/mL, the MIC ([1]; strain CCF 2MR) is reported as greater than 8 µg/mL and the MIC ([1]; strain CCF 3MR) is reported as greater than 8 µg/mL. The MIC ([1]; strain CCF 4MR) was greater than 8 µg/mL, the MIC ([1]; strain CCF 5MR) was greater than 8 µg/mL and the MIC ([1]; strain CCF 6MR) was greater than 8 µg/mL. For the same molecule, the MIC ([1]; strain CCF 7MR) was greater than 8 µg/mL, the MIC ([1]; strain CCF 8MR) was greater than 8 µg/mL and the MIC ([1]; strain UH AB202) was greater than 8 µg/mL. The MIC ([1]; strain UH AB461) was greater than 8 µg/mL, the MIC ([1]; strain UH AB477) was greater than 8 µg/mL and the MIC ([1]; strain UH AB487) was greater than 8 µg/mL. It also gave an MIC ([1]; strain UH AB489) greater than 8 µg/mL, an MIC ([1]; strain UH AB490) greater than 8 µg/mL and an MIC ([1]; strain UH AB491) greater than 8 µg/mL. For the same molecule, the MIC ([1]; strain UH AB636) was greater than 8 µg/mL, the MIC ([1]; strain UH AB660) was greater than 8 µg/mL and the MIC ([1]; strain UH AB667) was greater than 8 µg/mL. The MIC ([1]; strain VA-432) was 32 µg/mL (≈ 107 µM), the MIC ([1]; strain VA-433) was 16 µg/mL (≈ 53.4 µM) and the MIC ([1]; strain VA-434) was 64 µg/mL (≈ 214 µM). It also gave an MIC ([1]; strain VA-435) of 32 µg/mL (≈ 107 µM), an MIC ([1]; strain VA-436) of 64 µg/mL (≈ 214 µM) and an MIC ([1]; strain VA-437) of 32 µg/mL (≈ 107 µM). It also gave an MIC ([1]; strain VA-438) of 16 µg/mL (≈ 53.4 µM) and an MIC ([1]; strain VA-505) of 32 µg/mL (≈ 107 µM).

With Colistin the “Log10 CFU/g” value (A. baumannii ARC5955) was 5.3 log10 CFU/g, the “Change in log10 CFU/g” value (A. baumannii ARC5955) was −1.4 log10 CFU/g and the “Change in log10 CFU/g” value (A. baumannii ARC5955; listed as colistin) was −1.36 log10 CFU/g.

In the case of `NC(=O)[C@@H]1CC[C@@H]2CN1C(=O)N2OS(=O)(=O)O` [Avibactam, avibactam], the k2/Ki (OXA-48) is given as 1.4 ± 0.1 × 10^3 M^−1 s^−1, the k2/Ki (OXA-10) is given as 1.1 ± 0.1 × 10^1 M^−1 s^−1 and the IC50 (OXA 24/40) is given as […].
